Laboratory results: patent publication US11401277B2, “Anti-bacterial heterocyclic compounds and their synthesis” (Bugworks Research, Inc., priority 2017, dated 2022)
In brackets after ≈: the same amount, converted by molar mass. Several values for one entry are separate records, joined by “and”; a condition that tells them apart may be missing. Equal entries are not always repeated. Values belong to the compound of their own block, whether it stands above or below them.

Tests used:
[1] = test system: E. cloacae clinical strains; assay: Susceptibility (MIC50 and MIC90 determination) studies, clinical strains; assay type: cell-based; details: CLSI
[2] = test system: A. baumanni clinical strains; assay: as above; assay type: cell-based; details: CLSI
E. coli clinical strains = assay: as above; assay type: cell-based; details: CLSI
[3] = test system: P. aurigenosa clinical strains; assay: as above; assay type: cell-based; details: CLSI
E. coli [ATCC25922] = assay: Urinary Tract Infection Rat Model (kidneys, bladder); details: 30 mg/kg, i.v. bolus
[4] = test system: P. aeruginosa [ATCC27853]; assay: Neutropenic Lung Infection Model in Rat; assay type: in vivo; details: 30 mg/kg, i.v. bolus
Experimental: Animals were placed into an induction chamber and anaesthesia was induced by exposing the animals to 3-5% Isoflurane in an oxygen flow set at approximately (˜) 1 liter per minute (LPM). […] A gentle mixing of inoculum between two animals was followed for uniform distribution.
Meropenem was formulated in saline.
Entire Lung was aseptically isolated, weighed and placed into 1 mL of sterile CSDB broth, and homogenized (Omni Tip (220 V hand held)). Serial ten-fold dilutions of the lungs homogenates were prepared in sterile CSD broth and 0.05 mL of four dilutions for each tissue was plated onto CSDA agar plates. Bacterial colonies were enumerated following overnight incubation at 37° C. Bacterial densities were estimated as Log10 CFU/g lung. The Mean±SD Log10 CFU/g lung was estimated in each group.

[5] = test system: K. pneumoniae clinical strains; assay: Susceptibility (MIC50 and MIC90 determination) studies, clinical strains; assay type: cell-based; details: CLSI
E. coli topoisomerase IV = E. coli topoisomerase IV (Escherichia coli, UniProt P0AFI2+P20083); assay: biochemical; details: gel based decatenation assay; read-out: E. coli Topo IV IC50
Chain of E. coli topoisomerase IV (P20083 whole entry): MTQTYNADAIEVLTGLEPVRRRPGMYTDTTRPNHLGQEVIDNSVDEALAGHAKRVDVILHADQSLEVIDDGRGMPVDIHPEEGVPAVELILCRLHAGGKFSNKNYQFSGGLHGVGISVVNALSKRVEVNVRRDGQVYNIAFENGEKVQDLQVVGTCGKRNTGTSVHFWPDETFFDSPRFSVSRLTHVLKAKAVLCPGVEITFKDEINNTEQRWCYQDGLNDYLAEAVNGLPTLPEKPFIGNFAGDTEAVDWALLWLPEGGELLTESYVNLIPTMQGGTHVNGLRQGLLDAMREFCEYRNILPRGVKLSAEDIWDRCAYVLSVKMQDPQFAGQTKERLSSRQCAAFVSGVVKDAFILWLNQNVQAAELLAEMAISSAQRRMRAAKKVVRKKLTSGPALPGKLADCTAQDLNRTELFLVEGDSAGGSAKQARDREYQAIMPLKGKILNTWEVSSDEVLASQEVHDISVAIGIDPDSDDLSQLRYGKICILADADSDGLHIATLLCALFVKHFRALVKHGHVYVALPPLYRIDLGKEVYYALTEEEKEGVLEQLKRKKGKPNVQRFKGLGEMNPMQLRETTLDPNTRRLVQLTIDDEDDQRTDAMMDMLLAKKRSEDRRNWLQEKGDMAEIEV
Chain of E. coli topoisomerase IV (P0AFI2 whole entry): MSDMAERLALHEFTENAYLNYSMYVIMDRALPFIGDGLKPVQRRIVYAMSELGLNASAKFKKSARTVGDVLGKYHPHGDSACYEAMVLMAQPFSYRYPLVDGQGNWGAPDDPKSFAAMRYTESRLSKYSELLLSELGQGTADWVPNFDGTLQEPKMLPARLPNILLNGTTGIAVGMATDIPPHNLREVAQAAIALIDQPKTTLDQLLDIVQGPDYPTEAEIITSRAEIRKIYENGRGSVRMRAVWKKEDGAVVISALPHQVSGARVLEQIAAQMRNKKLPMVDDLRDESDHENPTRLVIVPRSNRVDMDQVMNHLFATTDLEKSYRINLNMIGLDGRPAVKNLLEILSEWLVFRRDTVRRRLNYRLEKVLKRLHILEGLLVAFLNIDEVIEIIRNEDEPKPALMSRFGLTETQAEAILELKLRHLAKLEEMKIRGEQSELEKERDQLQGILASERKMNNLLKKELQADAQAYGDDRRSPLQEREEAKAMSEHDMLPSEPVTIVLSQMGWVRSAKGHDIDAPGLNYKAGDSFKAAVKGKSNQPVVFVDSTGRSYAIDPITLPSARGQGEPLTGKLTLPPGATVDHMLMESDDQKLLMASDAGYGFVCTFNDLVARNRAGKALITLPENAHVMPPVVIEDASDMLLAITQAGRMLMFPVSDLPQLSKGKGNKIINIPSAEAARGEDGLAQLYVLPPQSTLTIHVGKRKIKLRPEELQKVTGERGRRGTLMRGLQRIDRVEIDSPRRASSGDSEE

S. aureus ATCC 29213 = assay: MIC studies in LB Media; assay type: cell-based; details: Staphylococcus aureus, ATCC29213, MIC = 90% inhibition of growth, read-out: Minimum Inhibitory Concentration in LB Media, S. au
Experimental: (§1) Bacterial cultures that were stored as glycerol stocks at −80° C. were sub cultured on LB agar plates to obtain isolated colonies. A single colony of each strain was cultured in LB broth. The cultures were incubated at 37° C., 200 rpm till they reach an optical density (OD at 600 nm) of 0.8 to 1. […] Test compounds were dissolved in dimethyl sulfoxide (DMSO) to a stock concentration of 4 mg/ml. A two-fold dilution series of this DMSO stock was prepared in a 96 well V bottom microtitre plate from rows A to H. A 3 μL volume of these dilutions were transferred to a 96-well flat bottom microtitre assay plate. Controls to monitor the effects of DMSO and media sterility were included. Each well was inoculated with 150 μL of the above diluted culture. The plates were incubated at 37° C. overnight in a humidified incubator. The following morning, the plates were read using a Spectrophotometer at 600 nm wavelength.

E. faecalis ATCC 29212 = assay: MIC studies in LB Media; assay type: cell-based; details: Enterococcus faecalis, ATCC29212, read-out: Minimum Inhibitory Concentration in LB Media, E. fa
Experimental: as §1

E. coli ATCC 25922 = assay: MIC studies in LB Media; assay type: cell-based; details: Escherichia coli, ATCC25922, read-out: Minimum Inhibitory Concentration in LB Media, E. co
Experimental: as §1

P. aurigenosa ATCC 27853 = assay: MIC studies in LB Media; assay type: cell-based; details: Pseudomonas aeruginosa, ATCC27853, read-out: Minimum Inhibitory Concentration in LB Media, P. ae
Experimental: as §1

[6] = test system: Proteus mirabilis ATCC 43071; assay: MIC studies in LB Media; assay type: cell-based; details: ATCC43071, read-out: Minimum Inhibitory Concentration in LB Media, P. mi
Experimental: as §1

[7] = test system: Morganella morganii ATCC 25830; assay: MIC studies in LB Media; assay type: cell-based; details: ATCC25830, read-out: Minimum Inhibitory Concentration in LB Media, M. mo
Experimental: as §1

[8] = test system: Citrobacter freundii ATCC 43864; assay: MIC studies in LB Media; assay type: cell-based; details: ATCC43864, read-out: Minimum Inhibitory Concentration in LB Media, C. fr
Experimental: as §1

K. pneumoniae ATCC 13883 = assay: MIC studies in LB Media; assay type: cell-based; details: Klebsiella pneumoniae, ATCC13883, read-out: Minimum Inhibitory Concentration in LB Media, K. pn
Experimental: as §1

[9] = test system: Enterobacter cloacae ATCC 13047; assay: MIC studies in LB Media; assay type: cell-based; details: ATCC13047, read-out: Minimum Inhibitory Concentration in LB Media, E. cl
Experimental: as §1

A. baumannii ATCC 19606 = assay: MIC studies in LB Media; assay type: cell-based; details: Acinetobacter baumannii, ATCC19606, read-out: Minimum Inhibitory Concentration in LB Media, A. ba
Experimental: as §1

E. coli DNA gyrase = E. coli DNA gyrase (Escherichia coli, UniProt P0AES4+P0AES6); assay: biochemical; details: gel based supercoiling assay; read-out: E. coli DNA Gyrase IC50
hERG potassium channel = biological target: T1, hERG potassium channel (Homo sapiens, UniProt Q12809); assay: hERG inhibition assay, QPatch HTX automated electrophysiology; assay type: cell-based; details: CHO cell line expressing hERG; whole-cell patch clamp, room temperature
T1 construct: Chinese Hamster Ovary cell line stably expressing the full-length hERG potassium channel; expressed in transfected cells
T1 sequence (Q12809 whole entry): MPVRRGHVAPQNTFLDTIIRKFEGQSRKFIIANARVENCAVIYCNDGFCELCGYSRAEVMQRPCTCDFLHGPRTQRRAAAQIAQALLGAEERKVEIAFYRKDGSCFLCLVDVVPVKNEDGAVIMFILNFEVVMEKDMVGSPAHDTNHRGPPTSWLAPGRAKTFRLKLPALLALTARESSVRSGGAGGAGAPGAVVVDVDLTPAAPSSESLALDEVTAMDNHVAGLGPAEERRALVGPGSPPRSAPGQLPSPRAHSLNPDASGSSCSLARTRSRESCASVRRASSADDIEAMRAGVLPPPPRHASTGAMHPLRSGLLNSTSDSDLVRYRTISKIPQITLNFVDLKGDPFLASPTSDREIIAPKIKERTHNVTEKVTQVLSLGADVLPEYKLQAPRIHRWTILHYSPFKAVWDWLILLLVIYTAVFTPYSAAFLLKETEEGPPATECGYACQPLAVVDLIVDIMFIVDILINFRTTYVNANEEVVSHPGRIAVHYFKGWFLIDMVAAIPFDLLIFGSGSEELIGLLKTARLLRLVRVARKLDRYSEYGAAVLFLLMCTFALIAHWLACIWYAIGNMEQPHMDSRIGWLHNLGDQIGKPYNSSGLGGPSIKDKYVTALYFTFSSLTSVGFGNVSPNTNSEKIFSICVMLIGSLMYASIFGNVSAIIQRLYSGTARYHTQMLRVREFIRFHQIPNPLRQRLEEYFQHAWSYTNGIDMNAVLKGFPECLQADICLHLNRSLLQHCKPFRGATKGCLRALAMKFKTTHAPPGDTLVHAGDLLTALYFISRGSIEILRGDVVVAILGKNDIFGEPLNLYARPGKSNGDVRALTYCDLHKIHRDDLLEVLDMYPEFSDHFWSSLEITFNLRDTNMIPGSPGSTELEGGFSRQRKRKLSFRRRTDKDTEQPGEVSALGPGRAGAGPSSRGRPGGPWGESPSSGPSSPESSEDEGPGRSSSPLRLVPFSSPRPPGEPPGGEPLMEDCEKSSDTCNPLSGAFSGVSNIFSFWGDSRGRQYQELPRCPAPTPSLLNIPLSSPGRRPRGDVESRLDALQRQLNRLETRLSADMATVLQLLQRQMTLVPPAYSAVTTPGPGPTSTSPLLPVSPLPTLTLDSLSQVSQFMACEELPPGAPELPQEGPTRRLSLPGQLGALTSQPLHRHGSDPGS
Experimental: The compounds were tested for inhibition of the human ether a go-go related gene (hERG) K+ channel using QPatch HTX automated electrophysiology.
Compounds of Formula I were solubilised to 100 mM in DMSO before dilution in HBPS to 300 μM.
Electrophysiological recordings were made from a Chinese Hamster Ovary cell line stably expressing the full-length hERG potassium channel. Single cell ionic currents were measured in whole-cell patch clamp configuration at room temperature (21-23° C.) using the QPatch HTX platform (Sophion). Intracellular solution contained (mM): 120 KF, 20 KCl, 10 EGTA, 10 HEPES and was buffered to pH 7.3. […] Cells were clamped at a holding potential of −80 mV. Cells were stepped to +20 mV for 2 s then −40 mV for 3 s before returning to the holding potential. This sweep was repeated 10 times at 10 s intervals. hERG currents were measured from the tail step and referenced to the holding current. Compounds were then incubated for 2 minutes prior to a second measurement of ion channel current using an identical pulse train.

[10] = Escherichia coli, E. coli clinical strains
[11] = individual animals, 24 h post infection
[12] = Klebsiella pneumoniae, Kpn clinical strains

Minimum (MIC) ([1]; MIC50/MIC90 in μg/ml): 0.06 µg/mL
MIC50 ([1]; Enterobacter cloacae): 0.25 µg/mL (≈ 0.652 µM)
MIC90 ([1]; Enterobacter cloacae): 16 µg/mL (≈ 41.7 µM)
MIC50 ([2]; Aba clinical strains): 8 µg/mL (≈ 20.9 µM)
MIC90 ([2]; Aba clinical strains): 32 µg/mL (≈ 83.4 µM)
Minimum (MIC) ([2]; Aba clinical strains, MIC50/MIC90 in μg/ml, in µg/mL): 0.03125
MIC ATCC19606 ([2]; Aba reference strain ATCC19606, MIC50/MIC90 in μg/ml): 0.5 µg/mL (≈ 1.3 µM)
Minimum (MIC) (E. coli clinical strains; E. coli clinical strains, MIC50/MIC90 in μg/ml): 0.03 µg/mL
MIC ATCC25922 (E. coli clinical strains; E. coli reference strain ATCC25922, MIC50/MIC90 in μg/ml): 0.06 µg/mL (≈ 0.156 µM)
MIC50 (E. coli clinical strains; [10]): 0.06 µg/mL (≈ 0.156 µM)
MIC90 (E. coli clinical strains; [10]): 4 µg/mL (≈ 10.4 µM)
MIC50 ([3]; Pae clinical strains): 2 µg/mL (≈ 5.22 µM)
MIC90 ([3]; Pae clinical strains): 8 µg/mL (≈ 20.9 µM)
Minimum (MIC) ([3]; Pae clinical strains, MIC50/MIC90 in μg/ml): 0.03 µg/mL
MIC ATCC27853 ([3]; Pae reference strain ATCC27853, MIC50/MIC90 in μg/ml): 0.5 µg/mL (≈ 1.3 µM)
MIC50 [5, 12]: 1 µg/mL (≈ 2.61 µM)
MIC90 [5, 12]: 16 µg/mL (≈ 41.7 µM)
Minimum (MIC) ([5]; Kpn clinical strains, MIC50/MIC90 in μg/ml): 0.03 µg/mL
MIC ATCC13883 ([5]; Kpn reference strain ATCC13883, MIC50/MIC90 in μg/ml): 0.06 µg/mL (≈ 0.156 µM)
Compound: C[C@@H](O)[C@H]1C(=O)N2C(C(=O)O)=C(S[C@@H]3CN[C@H](C(=O)N(C)C)C3)[C@H](C)[C@H]12 [Meropenem, meropenem, reference compound]
MEAN ± SD (Log10 CFU/g kidneys) (E. coli [ATCC25922]): 3.83 ± 0.27 Log10 CFU/g kidneys
MEAN ± SD (Log10 CFU/ml Bladder) (E. coli [ATCC25922]): 4.69 ± 0.32 Log10 CFU/ml Bladder
Mean Log10CFU/g kidney reduction (wrt 4 h PI control: 4.53 Log10CFU/g kidneys) (E. coli [ATCC25922]): 0.70 Log10CFU/g kidney
Mean Log10 CFU/ml Bladder reduction (wrt 4 h PI control: 5.72 CFU/ml Bladder) (E. coli [ATCC25922]): 1.03 Log10 CFU/ml Bladder
Log10 CFU/g (Left Kidney) (E. coli [ATCC25922]; [11]): 3.61 Log10 CFU/g and 3.92 Log10 CFU/g and 4.06 Log10 CFU/g
Log10 CFU/g (Right Kidney) (E. coli [ATCC25922]; [11]): 3.41 Log10 CFU/g and 4.12 Log10 CFU/g and 3.87 Log10 CFU/g
Log10 CFU/ml Bladder (E. coli [ATCC25922]; [11]): 4.87 Log10 CFU/ml Bladder and 4.33 Log10 CFU/ml Bladder and 4.89 Log10 CFU/ml Bladder
MEAN ± SD (Log10 CFU/g Lung) [4]: 5.43 ± 0.14 Log10 CFU/g Lung
Mean Log 10 CFU/g lung reduction (wrt 4 h PI control: 6.52 Log10CFU/g lung) [4]: 1.09 Log 10 CFU/g lung
Log10 CFU/g Lung [4, 11]: 5.35 Log10 CFU/g Lung and 5.36 Log10 CFU/g Lung and 5.59 Log10 CFU/g Lung

Compound: Cn1c(=O)cnc2ccc(F)c(OCCNC[C@H]3CN(c4cnc5c(n4)NC(=O)CO5)C(=O)O3)c21 [Compound 7, (S)-6-(5-(((2-((6-fluoro-4-methyl-3-oxo-3,4-dihydroquinoxalin-5-yl)oxy)ethyl)amino)methyl)-2-oxooxazolidin-3-yl)-2H-pyrazino[2,3-b][1,4]oxazin-3(4H)-one]
IC50 (E. coli topoisomerase IV): < 220 nM
MIC (S. aureus ATCC 29213): ≤ 0.015 µg/mL
MIC (E. faecalis ATCC 29212): 0.06 µg/mL (≈ 0.124 µM)
MIC (E. coli ATCC 25922): 0.03 µg/mL (≈ 0.0618 µM)
MIC (P. aurigenosa ATCC 27853): 0.25 µg/mL (≈ 0.515 µM)
MIC [6]: 0.25 µg/mL (≈ 0.515 µM)
MIC [7]: 0.06 µg/mL (≈ 0.124 µM)
MIC [8]: 0.06 µg/mL (≈ 0.124 µM)
MIC (K. pneumoniae ATCC 13883): 0.06 µg/mL (≈ 0.124 µM)
MIC [9]: 0.125 µg/mL (≈ 0.258 µM)
MIC (A. baumannii ATCC 19606): 0.06 µg/mL (≈ 0.124 µM)
IC50 (E. coli DNA gyrase): 15 nM
IC50 (hERG potassium channel): > 300000 nM
